Four compounds from patent US20230310532A1, “FOOD EXTRACTS, METHODS OF EXTRACTION AND COMPOSITIONS THEREOF” (National University of Singapore, priority 2020, published 2023) can be followed below.

Where two headings read alike, the source gives them in different places.

The target of this experiment is T1, Pancreatic lipase (from porcine pancreas, type II) (Sus scrofa, UniProt P00591).
T1 construct: Pancreatic lipase (from porcine pancreas, type II, 100-500 units/mg, L3126); purchased Sigma-Aldrich L3126; host or cells: porcine pancreas (tissue-derived)
T1 sequence (P00591 1-450): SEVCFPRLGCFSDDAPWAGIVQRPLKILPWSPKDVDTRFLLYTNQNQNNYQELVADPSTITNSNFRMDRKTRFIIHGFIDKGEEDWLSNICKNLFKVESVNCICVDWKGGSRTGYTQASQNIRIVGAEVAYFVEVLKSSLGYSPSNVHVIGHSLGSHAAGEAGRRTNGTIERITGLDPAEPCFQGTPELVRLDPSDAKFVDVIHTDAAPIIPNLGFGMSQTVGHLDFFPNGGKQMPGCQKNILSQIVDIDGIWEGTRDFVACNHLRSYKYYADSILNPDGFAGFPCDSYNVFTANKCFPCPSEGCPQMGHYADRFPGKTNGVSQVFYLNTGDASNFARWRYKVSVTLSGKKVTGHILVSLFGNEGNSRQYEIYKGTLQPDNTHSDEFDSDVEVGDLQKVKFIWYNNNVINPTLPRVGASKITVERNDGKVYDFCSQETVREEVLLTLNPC
The experiment is described as follows: Pancreatic lipase (PL) inhibitory activity assay using pNPP as substrate. Format: biochemical. Here is the method: Pancreatic Lipase Activity Assay Preparation The pancreatic lipase activity assay uses 4-nitrophenyl palmitate (pNPP) as colorimetric lipase substrate. […] Tris-Borate-EDTA buffer (10X, pH 8.3, PB 1040) was purchased from Vivantis Technologies (Selangor, Malaysia).
Buffer solution was prepared by diluting the 10X Tris-Borate-EDTA buffer (890 mM) into 50 mM solution, followed by addition of 0.35% (m/v) sodium deoxycholate, and adjust pH to 8.3. pNPP solution was prepared by adding pNPP into isopropanol to make a 1.5 mg/mL solution. Both solutions were stored in fridge (4° C.) for further tests. PL solution was prepared by suspending PL in 4° C. buffer solution (10 mg/mL), shaking by vortex mixer for 2 min, and centrifuging at 4° C., 6000 rpm for 5 min. The supernatant was divided into several 0.5 mL aliquots in 0.6 mL PP centrifuge tubes and stored in freezer (-18° C.) for further tests.
High-throughput Pancreatic Lipase Activity Assay. For each sample, 20 µL of extract was transferred into a 0.6 mL PP centrifuge tube, dry up at room temperature for 10 min, followed by adding 300 µL buffer solution. The mixture was sonicated thoroughly in water bath sonicator, 150 µL of the sample was transferred onto a 96-well microplate (Corning, clear polystyrene, USA), and incubated in microplate reader (Synergy HT, Biotek Instruments Inc., Winooski, VT, USA) at 37° C. for 15 min. Meanwhile, frozen lipase solution was thawed in room temperature, 10 µL of which was added into the well, and incubate at 37° C. for another 10 min. Finally, the reaction starts by adding 10 µL pNPP solution into each well. The reading wavelength was fixed at 410 nm, 3 s shaking before each reading, and a 1-hour kinetic data was obtained by a reading interval of 20 or 60 seconds. Negative control group (blank) was prepared by adding 20 µL pure solvent instead of extract in the first step.
The tendency of readings in the first 3 minutes were regarded as linear growth, and the slope was calculated by linear regression in Excel (Office 2016, Microsoft, USA). The inhibition activity of each sample is calculated in percentage inhibition by Eq. 1.
Comparator PL Inhibitory Assay (pNPP as substrate). p-Nitrophenyl palmitate (pNPP) is a synthetic chemical probe widely used in PL inhibitory assay. Long chain fatty acid (palmitic acid) and chromatic indicator (p-nitrophenol) are linked by an ester bond, and the molecule works as a substrate of PL. Hydrolyzed by PL in buffer solution, pNPP molecules release the indicators, and a yellowish color is presented. PL activity is indicated by the speed of color gain by time, and the color could be measured by optical density at 410 nm by a spectrometer. […] According to Michaelis-Menten equation, PL activity could be presented by the initial rate of the reaction. […] The inhibition is calculated percentage by Eq.1, and a dose-response curve could be plotted according to PL inhibition under different inhibitor concentrations (FIG. 1B). Fitting with proper model, IC50 could be calculated by plugging 50% into the fitted formula.

[1] abbreviates: lipase inhibition, resin glycosides in fraction F5.1.23.34 of sweet potato tuber.
[2] abbreviates: lipase inhibition, resin glycosides in fraction F5.1.23.34 of sweet potato tuber, read-out: IC50.
[3] abbreviates: isolated resin glycosides of sweet potato tuber, read-out: PL inhibition IC50.
[4] abbreviates: lipase inhibition, resin glycosides in fraction F5.1.23.34 of sweet potato tuber, read-out: IC50 (µg/mL) (converted).

For the compound Batataoside I, under setting [1], the “IC50 (µg/mL)” value came to 8.5 µg/mL. Under setting [2], the IC50 was 6.7 µM.
In the case of `CCCCCC1CCCCCCCCCC(=O)OC2C(O)C(OC(C)C2OC2OC(C)C(OC3OC(C)C(OC(=O)C(C)CC)C(OC(=O)C=Cc4ccccc4)C3O)C(OC3OC(C)C(O)C(O)C3O)C2OC(=O)C(C)CC)OC2C(O1)OC(C)C(O)C2O` (stereo not shown) [Pescaprein XXVII], the IC50 is, setting by setting: under setting [3], 4.9 to 6.7 µM; under setting [2], 5.6 µM; under setting [4], 5.61 µM.
With Batataoside II, under setting [1], the “IC50 (µg/mL)” value turned out to be 7.6 µg/mL. For the same compound, under setting [2], the IC50 came out at 6 µM.
Turning to `CCCCC[C@H]1CCCCCCCCCC(=O)O[C@H]2[C@H](O[C@H]3[C@H](O1)O[C@H](C)[C@H](O)[C@@H]3O)O[C@@H](C)[C@H](O[C@@H]1O[C@@H](C)[C@H](O[C@@H]3O[C@@H](C)[C@H](OC(=O)[C@@H](C)CC)[C@@H](OC(=O)/C=C/c4ccccc4)[C@H]3O)[C@@H](O[C@@H]3O[C@@H](C)[C@H](O)[C@@H](O)[C@H]3O)[C@H]1OC(=O)[C@@H](C)CC)[C@H]2O` [Batatoside III], the IC50 under setting [3] is 4.9 to 6.7 µM, the IC50 under setting [2] was found to be 4.9 µM and the IC50 under setting [4] is 4.91 µM.
